Results taken from patent publication US12391737B2, “Soluble NPY2 receptor agonists” (Boehringer Ingelheim International GmbH, priority 2020, dated 2025).

What was measured:
[1] = target: T1, Human Neuropeptide Y2 Receptor (Homo sapiens, UniProt P49146); test: Radioligand binding competition assay (RLB); details: Table 3, 125I-PYY(1-36) competition; read-out: Ki
T1 construct: purchased CHEMICON HTS066M
T1 sequence (P49146 1-381): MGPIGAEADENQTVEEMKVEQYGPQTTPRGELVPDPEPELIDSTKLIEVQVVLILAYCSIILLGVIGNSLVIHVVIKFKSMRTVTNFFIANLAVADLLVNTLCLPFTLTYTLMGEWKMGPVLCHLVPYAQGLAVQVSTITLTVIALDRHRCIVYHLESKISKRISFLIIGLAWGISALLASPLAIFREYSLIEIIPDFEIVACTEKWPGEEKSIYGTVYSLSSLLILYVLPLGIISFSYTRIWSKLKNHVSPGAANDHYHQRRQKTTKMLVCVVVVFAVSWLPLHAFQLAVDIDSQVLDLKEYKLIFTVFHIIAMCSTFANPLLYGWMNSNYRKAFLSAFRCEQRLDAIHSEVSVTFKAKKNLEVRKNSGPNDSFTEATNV
Summary of the method: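 Peptides were serially diluted from 1 mM DMSO stocks and competed for radioligand binding to receptor membranes (0.5 μg/well) over 2 h at room temperature, pH 7.4 HEPES buffer. Bound radioactivity on filters was counted by scintillation, and IC50 was derived by nonlinear regression.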

[2] = Solubility determination; details: for Sol6: pH 6; for Sol7: pH 7
Summary of the method: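 Sample: TFA-salt peptide at 10 mg/ml target in 0.1 M Na diphosphate, pH 6.4 or 7.0, shaken 2 h RT, filtered, diluted to 1 mg/ml.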

| SMILES | Ki [1] [nM] | Sol6 [2] [mg/mL] | Sol7 [2] [mg/mL] |
| --- | --- | --- | --- |
| CC[C@H](C)[C@H](NC(=O)[C@H](CCC(=O)O)NC(=O)[C@H](CCC(=O)O)NC(=O)[C@@H]1CCCN1C(=O)[C@H](CO)NC(=O)[C@H](C)NC(=O)[C@H](CC(=O)O)NC(=O)[C@H](CCC(=O)O)NC(=O)[C@@H]1CCCN1C(=O)[C@@H]1CCCN1C(=O)[C@H](CCCCNC(=O)CCCCCNC(=O)CC[C@H](NC(=O)CCCCCCCCCCCCCCCCC(=O)O)C(=O)O)NC(=O)[C@H](C)NC(=O)[C@@H]1CCCN1C(=O)[C@H](C)NC(=O)CC(C)C)C(=O)N[C@@H](CCC(N)=O)C(=O)N[C@@H](CCCNC(=N)N)C(=O)N[C@@H](Cc1ccc(O)cc1)C(=O)N[C@@H](Cc1ccc(O)cc1)C(=O)N[C@H](C(=O)N[C@@H](CO)C(=O)N[C@@H](CC(C)C)C(=O)N[C@@H](CCCNC(=N)N)C(=O)N[C@@H](Cc1c[nH]cn1)C(=O)N[C@@H](Cc1ccc(O)cc1)C(=O)N[C@@H](Cc1ccc(O)cc1)C(=O)N[C@@H](CC(N)=O)C(=O)N[C@@H](Cc1c[nH]c2ccccc12)C(=O)N[C@@H](CC(C)C)C(=O)N[C@H](C(=O)N[C@@H](CCCNC(=N)N)C(=O)N[C@@H](CCC(N)=O)C(=O)N[C@@H](CCCNC(=N)N)C(=O)N[C@@H](Cc1ccc(O)cc1)C(N)=O)[C@@H](C)O)C(C)C [Compound 82, N{alpha-4}-(3-methylbutanoyl)-N{epsilon-7}-(6-[(4S)-4-carboxy-4-(17-carboxyheptadecanamido)butanamido]hexanoyl)-[4A,6A,7K,9P,17I,18Q,22V,28Y,30W,31L]-hPYY(4-36)] | 0.58 | 0.0 | 9.0 |
| CC[C@H](C)[C@H](NC(=O)[C@H](CCC(=O)O)NC(=O)[C@H](CCC(=O)O)NC(=O)[C@@H]1CCCN1C(=O)[C@@H](NC(=O)[C@H](C)NC(=O)[C@H](C)NC(=O)[C@H](CCC(=O)O)NC(=O)[C@H](CCC(=O)O)NC(=O)[C@@H]1CCCN1C(=O)[C@H](CCCCNC(=O)CCCCCNC(=O)CC[C@H](NC(=O)CCCCCCCCCCCCCCCCC(=O)O)C(=O)O)NC(=O)[C@H](C)NC(=O)[C@@H]1CCCN1C(=O)[C@H](C)NC(=O)CC(C)C)[C@@H](C)O)C(=O)N[C@@H](CCC(N)=O)C(=O)N[C@@H](CCCNC(=N)N)C(=O)N[C@@H](Cc1ccc(O)cc1)C(=O)N[C@@H](Cc1ccc(O)cc1)C(=O)N[C@H](C(=O)N[C@@H](C)C(=O)N[C@@H](CC(C)C)C(=O)N[C@@H](CCCNC(=N)N)C(=O)N[C@@H](Cc1c[nH]cn1)C(=O)N[C@@H](Cc1ccc(O)cc1)C(=O)N[C@@H](Cc1ccc(O)cc1)C(=O)N[C@@H](CC(N)=O)C(=O)N[C@@H](Cc1c[nH]c2ccccc12)C(=O)N[C@@H](CC(C)C)C(=O)N[C@H](C(=O)N[C@@H](CCCNC(=N)N)C(=O)N[C@@H](CCC(N)=O)C(=O)N[C@@H](CCCNC(=N)N)C(=O)N[C@@H](Cc1ccc(O)cc1)C(N)=O)[C@@H](C)O)C(C)C [Compound 120, N{alpha-4}-(3-methylbutanoyl)-N{epsilon-7}-(6-[(4S)-4-carboxy-4-(17-carboxyheptadecanamido)butanamido]hexanoyl)-[4A,6A,7K,9E,11A,13T,17I,18Q,22V,23A,28Y,30W,31L]-hPYY(4-36)] | 1.49 | 0.0 | 0.2 |
| CC(C)CC(=O)N[C@@H](C)C(=O)N1CCC[C@H]1C(=O)N[C@@H](CCC(=O)O)C(=O)N[C@@H](CCCCNC(=O)CCCCCNC(=O)CC[C@H](NC(=O)CCCCCCCCCCCCCCCCC(=O)O)C(=O)O)C(=O)N1CCC[C@H]1C(=O)N[C@@H](CCC(=O)O)C(=O)N[C@@H](CCC(=O)O)C(=O)N[C@@H](CC(=O)O)C(=O)N[C@@H](C)C(=O)N[C@H](C(=O)N1CCC[C@H]1C(=O)N[C@@H](CCC(=O)O)C(=O)N[C@@H](CCC(=O)O)C(=O)N[C@@H](CC(C)C)C(=O)N[C@@H](CCC(N)=O)C(=O)N[C@@H](CCCNC(=N)N)C(=O)N[C@@H](Cc1ccc(O)cc1)C(=O)N[C@@H](Cc1ccc(O)cc1)C(=O)N[C@H](C(=O)N[C@H](C(=O)N[C@@H](CC(C)C)C(=O)N[C@@H](CCCNC(=N)N)C(=O)N[C@@H](Cc1c[nH]cn1)C(=O)N[C@@H](Cc1ccc(O)cc1)C(=O)N[C@@H](Cc1ccc(O)cc1)C(=O)N[C@@H](CC(N)=O)C(=O)N[C@@H](Cc1c[nH]c2ccccc12)C(=O)N[C@@H](CC(C)C)C(=O)N[C@H](C(=O)N[C@@H](CCCNC(=N)N)C(=O)N[C@@H](CCC(N)=O)C(=O)N[C@@H](CCCNC(=N)N)C(=O)N[C@@H](Cc1ccc(O)cc1)C(N)=O)[C@@H](C)O)[C@@H](C)O)C(C)C)[C@@H](C)O [Compound 148, N{alpha-4}-(3-methylbutanoyl)-N{epsilon-7}-(6-[(4S)-4-carboxy-4-(17-carboxyheptadecanamido)butanamido]hexanoyl)-[4A,7K,9E,13T,18Q,22V,23T,28Y,30W,31L]-hPYY(4-36)] | 2.85 | 9.7 | 10.0 |
| CC(C)CC(=O)N[C@@H](C)C(=O)N1CCC[C@H]1C(=O)N[C@@H](CCC(=O)O)C(=O)N[C@@H](CCCCNC(=O)CCCCCNC(=O)CC[C@H](NC(=O)CCCCCCCCCCCCCCCCC(=O)O)C(=O)O)C(=O)N1CCC[C@H]1C(=O)N[C@@H](CCC(=O)O)C(=O)N[C@@H](CCC(=O)O)C(=O)N[C@@H](CC(=O)O)C(=O)N[C@@H](CCC(=O)O)C(=O)N[C@H](C(=O)N1CCC[C@H]1C(=O)N[C@@H](CCC(=O)O)C(=O)N[C@@H](CCC(=O)O)C(=O)N[C@@H](CC(C)C)C(=O)N[C@@H](CCC(N)=O)C(=O)N[C@@H](CCCNC(=N)N)C(=O)N[C@@H](Cc1ccc(O)cc1)C(=O)N[C@@H](Cc1ccc(O)cc1)C(=O)N[C@H](C(=O)N[C@@H](CO)C(=O)N[C@@H](CC(C)C)C(=O)N[C@@H](CCCNC(=N)N)C(=O)N[C@@H](Cc1c[nH]cn1)C(=O)N[C@@H](Cc1ccc(O)cc1)C(=O)N[C@@H](Cc1ccc(O)cc1)C(=O)N[C@@H](CC(N)=O)C(=O)N[C@@H](Cc1c[nH]c2ccccc12)C(=O)N[C@@H](CC(C)C)C(=O)N[C@H](C(=O)N[C@@H](CCCNC(=N)N)C(=O)N[C@@H](CCC(N)=O)C(=O)N[C@@H](CCCNC(=N)N)C(=O)N[C@@H](Cc1ccc(O)cc1)C(N)=O)[C@@H](C)O)C(C)C)[C@@H](C)O [Compound 8, N{alpha-4}-(3-methylbutanoyl)-N{epsilon-7}-(6-[(4S)-4-carboxy-4-(17-carboxyheptadecanamido)butanamido]hexanoyl)[4A,7K,9E,12E,13T,18Q,22V,28Y,30W,31L]-hPYY(4-36)] | 106 | 9.7 | 9.6 |
| CC(C)CC(=O)N[C@@H](C)C(=O)N1CCC[C@H]1C(=O)N[C@@H](C)C(=O)N[C@@H](CCCCNC(=O)CCCCCNC(=O)CC[C@H](NC(=O)CCCCCCCCCCCCCCCCC(=O)O)C(=O)O)C(=O)N1CCC[C@H]1C(=O)N[C@@H](CCC(=O)O)C(=O)N[C@@H](CCC(=O)O)C(=O)N[C@@H](CC(=O)O)C(=O)N[C@@H](C)C(=O)N[C@@H](CO)C(=O)N1CCC[C@H]1C(=O)N[C@@H](CCC(=O)O)C(=O)N[C@@H](CCC(=O)O)C(=O)N[C@@H](CC(C)C)C(=O)N[C@@H](CCC(N)=O)C(=O)N[C@@H](CCCNC(=N)N)C(=O)N[C@@H](CCC(N)=O)C(=O)N[C@@H](Cc1ccc(O)cc1)C(=O)N[C@H](C(=O)N[C@@H](CO)C(=O)N[C@@H](CC(C)C)C(=O)N[C@@H](CCCNC(=N)N)C(=O)N[C@@H](Cc1c[nH]cn1)C(=O)N[C@@H](Cc1ccc(O)cc1)C(=O)N[C@@H](Cc1ccc(O)cc1)C(=O)N[C@@H](CC(N)=O)C(=O)N[C@@H](Cc1c[nH]c2ccccc12)C(=O)N[C@@H](CC(C)C)C(=O)N[C@H](C(=O)N[C@@H](CCCNC(=N)N)C(=O)N[C@@H](CCC(N)=O)C(=O)N[C@@H](CCCNC(=N)N)C(=O)N[C@@H](Cc1ccc(O)cc1)C(N)=O)[C@@H](C)O)C(C)C [Compound 5, N{alpha-4}-(3-methylbutanoyl)-N{epsilon-7}-(6-[(4S)-4-carboxy-4-(17-carboxyheptadecanamido)butanamido]hexanoyl)[4A,6A,7K,9E,18Q,20Q,22V,28Y,30W,31L]-hPYY(4-36)] | 12.7 | 3.6 | 8.8 |
| CC(C)CC(=O)N[C@@H](C)C(=O)N1CCC[C@H]1C(=O)N[C@@H](CCC(=O)O)C(=O)N[C@@H](CCCCNC(=O)CCCCCNC(=O)CC[C@H](NC(=O)CCCCCCCCCCCCCCCCC(=O)O)C(=O)O)C(=O)N1CCC[C@H]1C(=O)N[C@@H](CCC(=O)O)C(=O)N[C@@H](CCC(=O)O)C(=O)N[C@@H](CC(=O)O)C(=O)N[C@@H](C)C(=O)N[C@H](C(=O)N1CCC[C@H]1C(=O)N[C@@H](CCC(=O)O)C(=O)N[C@@H](CCC(=O)O)C(=O)N[C@@H](CC(C)C)C(=O)N[C@@H](CCC(N)=O)C(=O)N[C@@H](CO)C(=O)N[C@@H](Cc1ccc(O)cc1)C(=O)N[C@@H](Cc1ccc(O)cc1)C(=O)N[C@H](C(=O)N[C@@H](CO)C(=O)N[C@@H](CC(C)C)C(=O)N[C@@H](CCCNC(=N)N)C(=O)N[C@@H](Cc1c[nH]cn1)C(=O)N[C@@H](Cc1ccc(O)cc1)C(=O)N[C@@H](Cc1ccc(O)cc1)C(=O)N[C@@H](CC(N)=O)C(=O)N[C@@H](Cc1c[nH]c2ccccc12)C(=O)N[C@@H](CC(C)C)C(=O)N[C@H](C(=O)N[C@@H](CCCNC(=N)N)C(=O)N[C@@H](CCC(N)=O)C(=O)N[C@@H](CCCNC(=N)N)C(=O)N[C@@H](Cc1ccc(O)cc1)C(N)=O)[C@@H](C)O)C(C)C)[C@@H](C)O [Compound 141, N{alpha-4}-(3-methylbutanoyl)-N{epsilon-7}-(6-[(4S)-4-carboxy-4-(17-carboxyheptadecanamido)butanamido]hexanoyl)-[4A,7K,9E,13T,18Q,19S,22V,28Y,30W,31L]-hPYY(4-36)] | 8.17 | 9.6 | 9.7 |
